Data: patent US20040019018A1, “Rigid pyrrolidone modulators of pkc” (priority 2003, published 2004)

Legend:
δ-PKC = biological target: T1, δ-PKC (Homo sapiens, UniProt Q05655); assay: [3H]PDBu displacement from recombinant PKC isozyme (baculovirus); assay type: binding; details: [3H]PDBu competition
T1 construct: made in house; host or cells: Sf9 cells (baculovirus)
Description: (§1) These procedures are described below. […] (See the key that follows)
(§2) Analysis of [20-^3H]phorbol 12,13-dibutyrate binding to PKC. […] [^3H]PDBu (20.0 Ci/mmol) was obtained from New England Nuclear. Phosphatidylserine and bovine […] were obtained from Sigma Chemical Co. Binding was determined in an incubation volume of 250 μl, containing [^3H]PDBu, PKC, 0.05 M Tris-Cl, pH 7.4, 100 μg/ml phosphatidylserine, various concentrations of the ligand being assayed for competition of [^3H]PDBu binding, and bovine […] at 1 mg/ml. In the case of the classical PKCs (α, β, […]) CaCl2 was included at a concentration of 0.1 mM. Liposomes of phosphatidylserine were prepared as follows. The phosphatidylserine solutions were dried down from CHCl3 under a stream of N2. After addition of 0.05 M Tris-Cl, pH 7.4, liposomes were prepared by sonication for 30 sec with the microtip probe of Sonifier Cell Disrupter (Heat Systems-Ultrasonics). [^3H]PDBu was used at a concentration twice the Kd previously determined for the specific receptor. Ligands were assayed over a concentration range of 3 orders of magnitude. Ligands were diluted in 0.05 M Tris-Cl, pH 7.4 containing 1 mg/ml bovine g-globulin. If the compounds were not soluble at the highest concentration used, they were dissolved in organic solvent (CHCl3 or ethanol) and mixed with the phosphatidylserine dissolved in CHCl3. The solvent was removed under a stream of N2.
(§3) Mixed liposomes were then prepared, as described for the preparation of the liposomes of phosphatidylserine alone, by the addition of 0.05 M Tris-Cl, pH 7.4, and sonication for 30 sec with the microtip probe of a Sonifier Cell Disrupter (Heat Systems-Ultrasonics). Incubation was for 5 min at 37° C. […] After vigorous mixing, the samples were incubated for 15 min to allow precipitation of the receptor. The precipitate was recovered by centrifugation at 12,000 rpm in a Beckman microcentrifuge at 4° C. […] This value provided a measure of the concentration of unbound [^3H]PDBu. The remainder of the supernatant was removed by aspiration and blotting with absorbent tissue. The tip of the centrifuge tube was cut off and the radioactivity in the pellet measured to determine total bound [^3H]PDBu. Non-specific binding of [^3H]PDBu was measured in the presence of 30 μM non-radioactive PDBu and used to determine an apparent partition coefficient for [^3H]PDBu under these assay conditions.
(§4) Specific binding represents the difference between total binding and the non-specific binding, where the latter value was calculated from the partition coefficient and the measured free [^3H]PDBu concentration in each tube. In each experiment, triplicate determinations were performed at each concentration of competing ligand. A half-maximal inhibitory concentration of inhibitor and a Ki for the inhibitor was determined by computer fit of the data points to the equation B(I)/B(O)=(L+Kd)/(Kd+(Kd/Ki)(I)+L), where B(I) represents the amount of [^3H]PDBu specifically bound in the presence of inhibitor, B(O) represents the amount specifically bound in the absence of inhibitor, L is the concentration of [^3H]PDBu, Kd is the measured dissociation constant for [^3H]PDBu, Ki is the dissociation constant for the inhibitor, and I is the concentration of inhibitor.
(§5) Expression of PKC isozymes in baculovirus. […] After 60-72 hr, the cells were centrifuged (1000 rpm, 10 min) and washed twice with phosphate buffered saline, and the pelleted cells kept at −70° C. until used.
(§6) For purification of the individual PKC isozymes, the cell pellet was resuspended in […] of a homogenization buffer of the following composition; 20 mM Tris-Cl, pH 8.0, 5 mM EDTA, 5 mM EGTA, 0.3% (v/v) 2-mercaptoethanol, 10 mM benzamidine, 50 μg/ml phenylmethylsulfonyl fluoride, and 250 μg/ml leupeptin. The cells were disrupted in a Potter-Elvehjem homogenizer at 4° C., and the homogenate is centrifuged at 100,000×g for 60 min.

β-PKC = biological target: T2, β-PKC (Homo sapiens, UniProt P05771); assay: as above; assay type: binding; details: [3H]PDBu competition
T2 construct: made in house; host or cells: Sf9 cells (baculovirus)
Description: as §1, §2, §3, §4, §5, §6

T1 sequence (Q05655 whole entry): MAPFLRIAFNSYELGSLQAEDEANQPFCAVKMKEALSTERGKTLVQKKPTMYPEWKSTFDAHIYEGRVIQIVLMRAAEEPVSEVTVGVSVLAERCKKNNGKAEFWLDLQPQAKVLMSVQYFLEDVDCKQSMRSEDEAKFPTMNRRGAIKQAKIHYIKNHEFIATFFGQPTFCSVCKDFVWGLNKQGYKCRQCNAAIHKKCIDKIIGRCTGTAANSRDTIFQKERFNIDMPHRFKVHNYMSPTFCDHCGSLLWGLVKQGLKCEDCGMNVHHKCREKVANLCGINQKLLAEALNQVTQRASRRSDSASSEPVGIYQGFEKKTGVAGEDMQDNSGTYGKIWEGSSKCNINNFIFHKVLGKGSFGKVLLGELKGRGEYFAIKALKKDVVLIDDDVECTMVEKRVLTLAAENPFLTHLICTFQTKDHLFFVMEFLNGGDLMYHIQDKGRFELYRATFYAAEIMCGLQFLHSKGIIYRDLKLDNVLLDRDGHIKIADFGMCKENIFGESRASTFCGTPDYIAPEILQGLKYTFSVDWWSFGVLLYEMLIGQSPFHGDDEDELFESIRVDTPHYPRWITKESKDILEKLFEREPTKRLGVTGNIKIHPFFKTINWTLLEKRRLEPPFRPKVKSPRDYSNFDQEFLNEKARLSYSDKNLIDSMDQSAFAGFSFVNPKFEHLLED
T2 sequence (P05771 whole entry): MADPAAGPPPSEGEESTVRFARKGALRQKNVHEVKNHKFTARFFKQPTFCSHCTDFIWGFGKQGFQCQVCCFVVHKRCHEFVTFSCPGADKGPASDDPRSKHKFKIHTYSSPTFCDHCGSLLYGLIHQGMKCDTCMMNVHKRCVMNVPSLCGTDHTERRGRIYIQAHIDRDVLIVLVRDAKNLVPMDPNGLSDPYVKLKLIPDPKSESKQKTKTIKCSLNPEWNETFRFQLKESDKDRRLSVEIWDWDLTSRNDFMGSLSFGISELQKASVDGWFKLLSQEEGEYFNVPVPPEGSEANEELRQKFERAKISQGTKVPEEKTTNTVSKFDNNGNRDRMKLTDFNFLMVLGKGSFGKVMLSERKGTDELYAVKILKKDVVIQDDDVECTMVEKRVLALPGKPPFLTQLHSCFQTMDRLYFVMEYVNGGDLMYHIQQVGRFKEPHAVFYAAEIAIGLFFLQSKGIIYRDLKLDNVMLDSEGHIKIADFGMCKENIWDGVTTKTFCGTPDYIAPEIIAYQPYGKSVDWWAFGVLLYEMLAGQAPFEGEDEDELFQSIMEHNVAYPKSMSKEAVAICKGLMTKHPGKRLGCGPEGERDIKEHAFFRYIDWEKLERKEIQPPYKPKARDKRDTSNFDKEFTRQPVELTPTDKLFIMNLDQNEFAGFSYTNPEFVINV

Ki (δ-PKC) [µM]	Ki (β-PKC) [µM]	Compound
1.63 ± 0.391	–	CCCCCCCCC#Cc1ccc2c(c1)C(C)(C(C)C)C1C(=O)NC(CO)C21 [Compound 1, (3S, 8R, 9S, 10S)-6-(dec-1′-ynyl)-3-hydroxymethyl-8-isopropyl-8-methyl-3,3a,8,8a-tetrahydro-2H-2-aza-cyclopenta[a]inden-1-one]
4.37 ± 0.214	8.49 ± 3.31	CCCCCCCCCCCC(=O)Oc1cc2c(cc1C(C)=O)[C@@H]1[C@@H](CO)NC(=O)[C@@H]1[C@]2(C)C(C)C [Compound 4, (3S, 8S, 9S, 10S)-5-acetyl-6-dodecanoyloxyl-3-hydroxymethyl-8-isopropyl-8-methyl-3,3a,8,8a-tetrahydro-2H -2-aza-cyclopenta[a]inden-1-one]
0.623 ± 0.318	1.61 ± 0.257	CCCCCCCCCCCC(=O)Oc1cc2c(cc1Br)[C@@H]1[C@@H](CO)NC(=O)[C@@H]1[C@]2(C)C(C)C [Compound 5, (3S, 8S, 9S, 10S)-5-bromo-6-dodecanoyloxyl-3-hydroxymethyl-8-isopropyl-8-methyl-3,3a,8,8a-tetrahydro-2H -2-aza-cyclopenta[a]inden-1-one]
–	> 10	CCCCCCCCCCCC(=O)Oc1cc2c(cc1C(C)=O)[C@@H]1[C@@H](CO)NC(=O)[C@@H]1[C@@]2(C)C(C)C [Compound 11, (3S, 8R, 9S, 10S)-5-acetyl-6-dodecanoyloxyl-3-hydroxymethyl-8-isopropyl-8-methyl-3,3a,8,8a-tetrahydro-2H -2-aza-cyclopenta[a]inden-1-one]

Compound	Ki (δ-PKC) [µM]	Ki (β-PKC) [µM]
CCCCCCCCCCCC(=O)Oc1ccc2c(c1)[C@](C)(C(C)C)[C@H]1C(=O)N[C@H](CO)[C@@H]21 [Compound 2, (3S, 8R, 9S, 10S)-6-dodecanoyloxyl-3-hydroxymethyl-8-isopropyl-8-methyl-3,3a,8,8a-tetrahydro-2H -2-aza-cyclopenta[a]inden-1-one]	1.37 ± 0.329	0.593 ± 0.178
CCCCCCCCCCCC(=O)Oc1ccc2c(c1)[C@@](C)(C(C)C)[C@H]1C(=O)N[C@H](CO)[C@@H]21 [Compound 3, (3S, 8S, 9S, 10S)-6-dodecanoyloxyl-3-hydroxymethyl-8-isopropyl-8-methyl-3,3a,8,8a-tetrahydro-2H -2-aza-cyclopenta[a]inden-1-one]	0.15 ± 0.064	1.05 ± 0.284
